According to patent US20260374773A1, “MULTI-CYCLIC IRAK AND FLT3 INHIBITING COMPOUNDS AND USES THEREOF” (CHILDREN'S HOSPITAL MEDICAL CENTER, priority 2022, published 2026):

What follows are molecules tested against T1, FLT3 N841I (Homo sapiens, UniProt P36888, N841I) (assay: DiscoverX KINOMEscan active site-directed competition binding, FLT3 N841I). Conditions: Table 13; no ATP.
T1 sequence (P36888 27-993 N841I): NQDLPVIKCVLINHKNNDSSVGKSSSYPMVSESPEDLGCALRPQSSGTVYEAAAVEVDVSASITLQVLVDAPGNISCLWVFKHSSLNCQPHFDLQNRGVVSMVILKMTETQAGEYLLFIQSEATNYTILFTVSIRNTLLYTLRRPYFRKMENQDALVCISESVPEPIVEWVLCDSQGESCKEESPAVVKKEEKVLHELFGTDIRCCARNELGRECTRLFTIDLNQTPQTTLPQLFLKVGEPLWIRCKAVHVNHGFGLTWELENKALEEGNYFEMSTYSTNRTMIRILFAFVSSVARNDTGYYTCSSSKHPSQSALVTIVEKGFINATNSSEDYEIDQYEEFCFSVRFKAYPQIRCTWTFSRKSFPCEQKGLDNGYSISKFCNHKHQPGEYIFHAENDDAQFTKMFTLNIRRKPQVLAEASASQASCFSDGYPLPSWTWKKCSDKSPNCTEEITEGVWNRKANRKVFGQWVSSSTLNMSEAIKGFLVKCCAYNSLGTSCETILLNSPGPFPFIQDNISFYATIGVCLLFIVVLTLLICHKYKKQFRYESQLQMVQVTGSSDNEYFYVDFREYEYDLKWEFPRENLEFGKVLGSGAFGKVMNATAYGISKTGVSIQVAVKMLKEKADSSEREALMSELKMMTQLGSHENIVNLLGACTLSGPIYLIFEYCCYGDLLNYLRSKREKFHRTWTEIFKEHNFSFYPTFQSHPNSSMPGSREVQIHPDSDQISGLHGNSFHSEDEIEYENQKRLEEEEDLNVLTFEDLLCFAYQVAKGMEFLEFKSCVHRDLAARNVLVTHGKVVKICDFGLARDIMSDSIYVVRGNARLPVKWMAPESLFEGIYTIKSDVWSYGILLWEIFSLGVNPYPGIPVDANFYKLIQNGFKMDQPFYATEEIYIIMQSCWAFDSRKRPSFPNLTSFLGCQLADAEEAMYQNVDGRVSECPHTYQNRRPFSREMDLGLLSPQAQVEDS
From the text: (§1) Kinase binding data were obtained for various exemplary compounds prepared according to Examples 1-8 using the DiscoverX KINOMEscan® active site-directed competition binding site-directed assay protocol described below. […] As a result, the data report thermodynamic interaction affinities (Kd values), rather than IC50 values that are dependent on ATP concentrations. The assay uses a DNA-tagged version of the protein kinase, and an immobilized ligand bound to a solid support. Compounds that directly or indirectly prevent kinase binding to the immobilized ligand reduce the amount of kinase captured on the solid support, which is detected using an ultra-sensitive qPCR method. Affinity constants reported from the assay have been reported to be independent of the immobilized ligand used that is coupled to the solid support (See supplemental information in Fabian, M. A. et. al., (2005) Nat. Biotechnol. 23, 329-336; Wodicka, L. M. et. al., (2010) Chem. Biol. 17, 1241-1249.)
Kinase-tagged T7 phage strains were prepared in an E. coli host derived from the BL21 strain. E. coli were grown to log-phase and infected with T7 phage and incubated with shaking at 32 °C until lysis. The lysates were centrifuged and filtered to remove cell debris. The remaining kinases were produced in HEK-293 cells and subsequently tagged with DNA for qPCR detection. Streptavidin-coated magnetic beads were treated with biotinylated small molecule ligands for 30 minutes at room temperature to generate affinity resins for kinase assays. The liganded beads were blocked with excess biotin and washed with blocking buffer (SeaBlock (Pierce), 1% BSA, 0.05% Tween 20, 1 mM DTT) to remove unbound ligand and to reduce non-specific binding. […] Test compounds were prepared as 111x stocks in 100% DMSO. Kds were determined using an 11-point 3-fold compound dilution series with three DMSO control points. All compounds for Kd measurements are distributed by acoustic transfer (non-contact dispensing) in 100% DMSO. The compounds were then diluted directly into the assays such that the final concentration of DMSO was 0.9%. All reactions were performed in polypropylene 384-well plates. Each was a final volume of 0.02 mL. The assay plates were incubated at room temperature with shaking for 1 hour and the affinity beads were washed with wash buffer (1×PBS, 0.05% Tween 20). The beads were then re-suspended in elution buffer (1×PBS, 0.05% Tween 20, 0.5 μM nonbiotinylated affinity ligand) and incubated at room temperature with shaking for 30 minutes. The kinase concentration in the eluates was measured by qPCR. Binding constants (Kds) were calculated with a standard dose-response curve using the Hill equation. The Hill Slope was set to −1. Curves were fitted using a non-linear least square fit with the Levenberg-Marquardt algorithm.
as §1, with “9-12” for “1-8”
Kinase-tagged T7 phage strains were prepared in an E. coli host derived from the BL21 strain. […]

Row | Kd | SMILES
1 | 0.79 nM | COc1cn2ncc(-c3nc(N[C@H]4CNCC[C@@H]4F)c(F)cc3F)c2nc1C(C)(C)O [Compound 13, 2-(3-(3,5-difluoro-6-(((3S,4S)-4-fluoropiperidin-3-yl)amino)pyridin-2-yl)-6-methoxypyrazolo[1,5-a]pyrimidin-5-yl)propan-2-ol]
2 | 0.48 nM | COc1cn2ncc(-c3nc(N[C@H]4CNCC[C@@H]4F)c(C#N)cc3F)c2nc1C(C)(C)O [Compound 10, 5-fluoro-2-(((3S,4S)-4-fluoropiperidin-3-yl)amino)-6-(5-(2-hydroxypropan-2-yl)-6-methoxypyrazolo[1,5-a]pyrimidin-3-yl)nicotinonitrile]
3 | < 0.17 nM | COc1cn2ncc(-c3nc(N[C@H]4CNCC[C@@H]4F)c(C#N)cc3F)c2nc1C1CC1 [Compound 7, 6-(5-cyclopropyl-6-methoxypyrazolo[1,5-a]pyrimidin-3-yl)-5-fluoro-2-(((3S,4S)-4-fluoropiperidin-3-yl)amino)nicotinonitrile]

Same assay, conditions: Table 19; no ATP

Row | Kd | SMILES
4 | < 0.17 nM | COc1cn2ncc(-c3nc(N[C@@H]4CCCNC4)ncc3F)c2nc1C1CC1 [Compound 14a, (R)-4-(5-cyclopropyl-6-methoxypyrazolo[1,5-a]pyrimidin-3-yl)-5-fluoro-N-(piperidin-3-yl)pyrimidin-2-amine]
5 | < 0.17 nM | COc1cn2ncc(-c3nc(N[C@H]4CNCC[C@@H]4F)ncc3F)c2nc1C1CC1 [Compound 15a, 4-(5-cyclopropyl-6-methoxypyrazolo[1,5-a]pyrimidin-3-yl)-5-fluoro-N-((3S,4S)-4-fluoropiperidin-3-yl)pyrimidin-2-amine]
6 | 0.27 nM | COc1cn2ncc(-c3cncc(N[C@H]4CNCC[C@@H]4F)n3)c2nc1C1CC1 [Compound 12a, 6-(5-cyclopropyl-6-methoxypyrazolo[1,5-a]pyrimidin-3-yl)-N-((3S,4S)-4-fluoropiperidin-3-yl)pyrazin-2-amine]
7 | 0.7 nM | COc1cn2ncc(-c3nc(N[C@H]4CNCC[C@@H]4F)ncc3F)c2nc1C(C)(C)O [Compound 6a, 2-(3-(5-fluoro-2-(((3S,4S)-4-fluoropiperidin-3-yl)amino)pyrimidin-4-yl)-6-methoxypyrazolo[1,5-a]pyrimidin-5-yl)propan-2-ol]
8 | 0.62 nM | COc1cn2ncc(-c3ccnc(N[C@H]4CNCC[C@@H]4F)n3)c2nc1C1CC1 [Compound 7a, 4-(5-cyclopropyl-6-methoxypyrazolo[1,5-a]pyrimidin-3-yl)-N-((3S,4S)-4-fluoropiperidin-3-yl)pyrimidin-2-amine]
